Assay in data set [1]: not given
This is another data set of the same source.

Assay in data set [2]: not given
The source holds these as a separate data set.

Assay in data set [3]: not given
The source holds these as a separate data set.

Counter-ions that a name gives are not always drawn.

`CC(Cl)(Cl)[N+](=O)[O-]` [1,1-Dichloro-1-nitroethane] displayed a flash point of 76.00 °C. Still for that read-out and setting: under `Clc1cc(Cl)c(Cl)cc1Cl` [1,2,4,5-Tetrachlorobenzene] stands 155.00 °C; under `CC(Cl)CCl` (stereo unspecified) [1,2-Dichloropropane], 16.00 °C; under `CC(O)CO` (stereo unspecified) [1,2-Propanediol], 99.00 °C. In turn, `CC(Cl)=CCCl` [1,3-Dichloro-2-butene] registered a flash point of 27.00 °C. Consider `C=CCC=CC` [1,4-Hexadiene], for which the flash point was -21.00 °C. In the case of `C1=CCC=CC1` [1,4-cyclohexadiene], the flash point in data set [1] is -11 °C; in data set [2], -6 °C. The matching figures for `C1=CCCC=CCC1` [1,5-cyclooctadiene]: 35 °C and 32 °C.

Take `C#CCCCCCC#C` [1,8-nonadiyne]: the flash point in data set [1] was 42 °C; in data set [2], 41 °C. Regarding `CCCCBr` [1-bromobutane], the flash point in data set [3] came out at 18.00 °C; in data set [2], 13 °C. In the same order, the values of `CCCBr` [1-bromopropane] are 26.00 °C and 21 °C. As for `CC(C)CCl` [1-chloro-2-methylpropane], the flash point in data set [3] is -10.00 °C; in data set [2], 21 °C. On to `CCCCl` [1-chloropropane], for which the results for the flash point in data set [3] and in data set [2] were -18.00 °C and -31 °C, respectively. In the case of `C#CCCCCCCCC` [1-decyne], the figures for the flash point in data set [1] and in data set [2] were 48 °C and 50 °C, respectively. With `C=CCCCCCCCCCC` [1-dodecene], the flash point was found to be 73 °C in data set [1] and 77 °C in data set [2].

For the compound `CC1=CCCCC1` [1-methylcyclohexene], the figures for the flash point in data set [1] and in data set [2] were -1 °C and -3 °C, respectively.

For the compound `CC1=CCCC1` [1-methylcyclopentene], the flash point is -19 °C in data set [1] and -17 °C in data set [2].

As for `CC(C)=CC=C(C)C` [2,5-dimethyl-2,4-hexadiene], the flash point in data set [1] is 24 °C; in data set [2], 29 °C.

Turning to `CCOCCO` [2-ethoxyethanol], the flash point in data set [3] was 41.00 °C; in data set [2] it was 44 °C. Turning to `CC#CCCC` [2-hexyne], the flash point is -10 °C in data set [1] and -11 °C in data set [2]. In the same order, the values of `COCCOC(C)=O` [2-methoxyethylacetate] are 43 °C and 45 °C.

`CC(C)(C)S` [2-methyl-2-propanethiol]: the flash point in data set [1] is -24 °C; in data set [2], -26 °C. The matching figures for `CC(CCO)CC(C)(C)C` (stereo unspecified) [3,5,5-trimethyl-1-hexanol]: 80 °C and 79 °C. As for `CC(C)CC(=O)O` [3-methylbutanoic acid], the flash point in data set [3] amounted to 70.00 °C; in data set [2], 74 °C. In the same order, the values of `CCBr` [bromoethane] are -23.00 °C and -20 °C.

`ClC1CCCCC1` [chlorocyclohexane]: the results for the flash point in data set [1] and in data set [2] were 28 °C and 32 °C, respectively. The matching figures for `C1CCCCCCCCC1` [cyclodecane]: 59 °C and 65 °C. In the same order, the values of `NCCNCCN` [diethylenetriamine] are 90 °C and 97 °C.

As for `COC(=O)OC` [dimethyl carbonate], the flash point was -1.00 °C in data set [3] and 18 °C in data set [2]. For `CC(C)COC(=O)C(C)C` [isobutyl isobutyrate], in data set [2], the flash point came to 40 °C.

The compound `CCCCCC#CC(=O)OC` [methyl 2-octynoate] displayed a flash point in data set [2] of 88 °C.

For `CCCC(=O)OC` [methyl butyrate], in data set [2], the flash point came to 11 °C.

As to `COC(=O)C1CC1` [methyl cyclopropanecarboxylate], the flash point in data set [2] was determined as 17 °C. Compound `CCCCCCC(=O)OC` [methyl heptanoate] came in with a flash point in data set [2] of 52 °C. `COC(=O)C(C)C` [methyl isobutyrate] had a flash point in data set [2] of 3 °C. Still for that read-out and setting: in the case of `C=C(C)C(C)=O` [methyl isopropenyl ketone] it was 13 °C; in that of `CCC(=O)OC` [methyl propionate], 6 °C; in that of `CC1=CC=CC1` [methylcyclopentadiene], 26 °C. With `CC1CCCC1` [methylcyclopentane], the values for the flash point in data set [3], in data set [1] and in data set [2] were -24.00 °C, -23 °C and -29 °C, respectively. Take `C=C1CCCC1` [methylenecyclopentane]: the flash point in data set [1] is -18 °C; in data set [2] it was -19 °C.

As for `C1COCCN1` [morpholine], the results for the flash point in data set [3] and in data set [2] were 38.00 °C and 35 °C, respectively. `CCCCCCCCC=O` [n-nonanal] gave a flash point in data set [2] of 71 °C.

With `CCCCCOC(C)=O` [n-pentyl acetate], the flash point in data set [2] turned out to be 25 °C.

Consider `CCCOC(C)=O` [n-propyl acetate], for which the flash point in data set [2] was 10 °C.

In turn, `CCc1ccccc1CC` [o-diethyl benzene] registered a flash point in data set [2] of 49 °C.

In data set [2], `Cc1ccc(O)cc1` [p-cresol] registered a flash point of 86 °C. Regarding `CCCCC=O` [pentanal], the results for the flash point in data set [3] and in data set [2] were 12.00 °C and 8 °C, respectively. The compound `O=C=Nc1ccccc1` [phenyl isocyanate] showed a flash point in data set [2] of 51 °C.

Take `CCC(=O)O` [propionic acid]: in data set [2], the flash point stood at 51 °C.

On to `c1cc[nH]c1` [pyrrole], for which the flash point in data set [2] came to 33 °C.

On to `c1ccc2ncccc2c1` [quinoline], for which the flash point in data set [2] was 105 °C.

Compound `CCC(C)SC(C)CC` (stereo unspecified) [s-butyl sulfide] came in with a flash point in data set [2] of 39 °C. Consider `CCC(C)c1ccccc1` (stereo unspecified) [sec-butylbenzene], for which the flash point in data set [2] is 45 °C. On the same count and under the same terms, in the case of `CC(C)(C)OC=O` [t-butyl formate] it was -9 °C; in that of `CSC(C)(C)C` [t-butyl methyl sulfide], -3 °C; in that of `CC(C)(C)ON=O` [t-butyl nitrite], -23 °C. As for `CCC(=O)OC(C)(C)C` [t-butyl propionate], the flash point in data set [2] stood at 20 °C.

For the compound `CC(=O)OC(C)(C)C` [tert-butyl acetate], the results for the flash point in data set [3] and in data set [2] were 22.00 °C and 15 °C, respectively. For the compound `COC(C)(C)C` [tert-butyl methyl ether], the flash point in data set [2] was -28 °C. In data set [2], `CC(C)(C)N` [tert-butylamine] had a flash point of -9 °C.

In the case of `C1CCSC1` [thiacyclopentane], the flash point in data set [2] was determined as 12 °C. `c1ccc(CN(Cc2ccccc2)Cc2ccccc2)cc1` [tribenzylamine]: in data set [2], the flash point came out at 203 °C.

Take `CCCCCCCCCCCCC` [tridecane]: the results for the flash point in data set [3], in data set [1] and in data set [2] were 79.00 °C, 94 °C and 102 °C, respectively.

In the case of `CCN(CC)CC` [triethylamine], the flash point in data set [2] was -17 °C. The same measure, in the same setting: in the case of `CCCCCCCCCCCc1ccccc1` [undecylbenzene] it was 144 °C.
